In patent US8252737B2, “Antimicrobial peptides and methods of use” (priority 2004, dated 2012):
In brackets after ≈: the same amount, converted by molar mass. Read-outs that look alike come from different tables or passages of the source.

How the values were obtained:
E. faecalis = tested on: E. faecalis
Summary of the method: (§1)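 Microtiter dilution in LB no-salt or Mueller-Hinton medium, with BHI for Pseudomonas aeruginosa clinical isolates (final inoculum 1×10^6 CFU/ml). Plates were incubated 24 hours at 37° C. MIC was the lowest peptide concentration inhibiting growth.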

C. albicans = tested on: C. albicans
Summary of the method: as §1

[1] = tested on: Staphylococcus epidermidis
[2] = tested on: Pseudomonas aeruginosa strains; settings: for Antimicrobial activity Fold: fold improvement in geometric mean MIC compared to V681; for MIC CP 204: strain CP 204
human red blood cells = experiment: Hemolysis time study (0-8 hours, 8-500 μg/ml); settings: 500 μg/ml, after 1 hour incubation
Protocol: The percent hemolysis of cells was determined spectrophotometrically by comparison with the complete hemolysis of cells in water.
[…] Peptide samples were diluted 2 fold in order to determine the concentration that produced no hemolysis. […] Hemoglobin release was determined spectrophotometrically at 562 nm. The hemolytic titer was the highest 2-fold dilution of the peptide that still caused release of hemoglobin from erythrocytes. The control for no release of hemoglobin was a sample of 1% erythrocytes without any peptide added. […] Peptide samples were diluted 2 fold in order to determine the concentration that produced no hemolysis. […] Hemoglobin release was determined spectrophotometrically at 570 nm. The hemolytic titer was the highest 2-fold dilution of the peptide that still caused release of hemoglobin from erythrocytes. The control for no release of hemoglobin was a sample of 1% erythrocytes without any peptide added.

[3] = CD temperature denaturation study of peptide V681; format: physicochemical; settings: 50% TFE in 0.05% aq. TFA (pH 2); 50% of α-helical structure denatured
Protocol: We next used temperature profiling during RP-HPLC to determine the self-association ability of the various analogs of V681 which would occur through interaction of the non-polar faces of these amphipathic α-helices. […] In order to investigate the stability of V681 in a hydrophobic environment, we carried out a temperature denaturation study in solution, as monitored by circular dichroism spectroscopy. […]
CD Temperature Denaturation Study of Peptide V681—The native peptide V681 was dissolved in 0.05% aqueous TFA containing 50% TFE, pH 2, loaded into a 0.02 cm fused silica cell and peptide ellipticity scanned from 190 to 250 nm at temperatures of 5, 15, 25, 35, 45, 55, 65 and 80° C. […] ([θ]t−[θ]u)/([θ]5−[θ]u) was calculated and plotted against temperature in order to obtain the thermal melting profiles, where [θ]5 and [θ]u represent the molar ellipticity values for the fully folded and fully unfolded species, respectively. [θ]u was determined in the presence of 8M urea with a value of 1500 deg cm^2 dmol^−1 to represent a totally random coil state (31). The melting temperature (Tm) was calculated as the temperature at which the α-helix was 50% denatured (([θ]t−[θ]u)/([θ]5−[θ]u)=0.5) and the values were taken as a measure of α-helix stability.

[4] = geometric mean of six Pseudomonas aeruginosa clinical isolates

| SMILES | MIC (μg/ml) E. faecalis C625 wt (E. faecalis) | MIC (μg/ml) C. xerosis C875 wt (Corynebacterium xerosis) | MIC (μg/ml) B. subtilis C971 wt (Bacillus subtilis) | MIC (μg/ml) S. epidermidis C621 wt [1] | Antimicrobial activity Fold [2] | MIC CP 204 [2] | MIC (μg/ml) C. albicans (C. albicans; fungus) | MIC GM [2, 4] | MIC M 2 ([2]; strain M 2) | MIC PA 14 ([2]; strain PA 14) | MIC PAK ([2]; strain PAK) | MIC PAO 1 ([2]; strain PAO 1) | MIC WR 5 ([2]; strain WR 5) | other results |
| --- | --- | --- | --- | --- | --- | --- | --- | --- | --- | --- | --- | --- | --- | --- |
| CC[C@H](C)[C@H](NC(=O)[C@H](C)NC(=O)[C@H](CCCCN)NC(=O)[C@H](CC(C)C)NC(=O)[C@H](C)NC(=O)[C@@H](NC(=O)[C@H](Cc1c[nH]cn1)NC(=O)[C@H](CC(C)C)NC(=O)[C@@H](NC(=O)[C@@H](NC(=O)[C@H](CCCCN)NC(=O)[C@@H](C)NC(=O)[C@H](C)NC(=O)[C@H](CO)NC(=O)[C@H](CCCCN)NC(=O)[C@H](Cc1ccccc1)NC(=O)[C@@H](NC(=O)[C@H](CCCCN)NC(=O)[C@H](CC(C)C)NC(=O)[C@H](Cc1ccccc1)NC(=O)[C@H](CO)NC(=O)[C@H](CCCCN)NC(=O)[C@H](Cc1c[nH]c2ccccc12)NC(=O)[C@H](CCCCN)NC(C)=O)[C@@H](C)O)[C@@H](C)O)C(C)C)[C@@H](C)O)C(=O)N[C@@H](CO)C(=O)N[C@@H](CO)C(N)=O [NAD] | 12.5 µg/mL (≈ 4.26 µM) | 1.6 µg/mL (≈ 0.545 µM) | 3.1 µg/mL (≈ 1.06 µM) | 1.6 µg/mL (≈ 0.545 µM) | 1.3 | 7.8 µg/mL (≈ 2.66 µM) |  |  |  |  |  |  |  | MIC (μg/ml) C. albicans (C. albicans): 12.5 µg/mL (≈ 4.26 µM); MIC GM ([2]; strains): 22.1 µg/mL (≈ 7.53 µM); MIC M 2 ([2]; strains): 7.8 µg/mL (≈ 2.66 µM); MIC PA 14 ([2]; strains): 31.3 µg/mL (≈ 10.7 µM); MIC PAK ([2]; strains): 62.5 µg/mL (≈ 21.3 µM); MIC PAO 1 ([2]; strains): 15.6 µg/mL (≈ 5.32 µM); MIC WR 5 ([2]; strains): 62.5 µg/mL (≈ 21.3 µM) |
| CC[C@H](C)[C@H](NC(=O)[C@H](C)NC(=O)[C@H](CCCCN)NC(=O)[C@H](CC(C)C)NC(=O)[C@H](C)NC(=O)[C@@H](NC(=O)[C@H](Cc1cnc[nH]1)NC(=O)[C@H](CC(C)C)NC(=O)[C@@H](NC(=O)[C@@H](NC(=O)[C@H](CCCCN)NC(=O)[C@H](CCCCN)NC(=O)[C@H](C)NC(=O)[C@H](CO)NC(=O)[C@H](CCCCN)NC(=O)[C@H](Cc1ccccc1)NC(=O)[C@@H](NC(=O)[C@H](CCCCN)NC(=O)[C@H](CC(C)C)NC(=O)[C@H](Cc1ccccc1)NC(=O)[C@H](CO)NC(=O)[C@H](CCCCN)NC(=O)[C@H](Cc1c[nH]c2ccccc12)NC(=O)[C@H](CCCCN)NC(C)=O)[C@@H](C)O)[C@@H](C)O)C(C)C)[C@@H](C)O)C(=O)N[C@@H](CO)C(=O)N[C@@H](CO)C(N)=O [NKL] |  | 1.6 µg/mL (≈ 0.535 µM) | 3.1 µg/mL (≈ 1.04 µM) | 6.3 µg/mL (≈ 2.11 µM) | 0.6 | 7.8 µg/mL (≈ 2.61 µM) | 50.0 µg/mL (≈ 16.7 µM) | 49.6 µg/mL (≈ 16.6 µM) | 31.3 µg/mL (≈ 10.5 µM) | 62.5 µg/mL (≈ 20.9 µM) | 125.0 µg/mL (≈ 41.8 µM) | 31.3 µg/mL (≈ 10.5 µM) | 250.0 µg/mL (≈ 83.6 µM) | MIC (μg/ml) E. faecalis C625 wt (E. faecalis; wild type strain): 50.0 µg/mL (≈ 16.7 µM); MIC (μg/ml) CP 204 ([2]; Pseudomonas aeruginosa clinical isolate CP 204): 7.8 µg/mL (≈ 2.61 µM); MIC (μg/ml) M 2 ([2]; Pseudomonas aeruginosa clinical isolate M 2): 31.3 µg/mL (≈ 10.5 µM); MIC (μg/ml) PA 14 ([2]; Pseudomonas aeruginosa clinical isolate PA 14): 62.5 µg/mL (≈ 20.9 µM); MIC (μg/ml) PAK ([2]; Pseudomonas aeruginosa clinical isolate PAK): 125.0 µg/mL (≈ 41.8 µM); MIC (μg/ml) PAO 1 ([2]; Pseudomonas aeruginosa clinical isolate PAO 1): 31.3 µg/mL (≈ 10.5 µM); MIC (μg/ml) WR 5 ([2]; Pseudomonas aeruginosa clinical isolate WR 5): 250.0 µg/mL (≈ 83.6 µM); MIC (μg/ml) GM ([2]; geometric mean of the MIC values for the 6 Pseudomonas aeruginosa clinical isolates): 49.6 µg/mL (≈ 16.6 µM) |
| CC[C@H](C)[C@H](NC(=O)[C@H](C)NC(=O)[C@H](CCCCN)NC(=O)[C@H](CC(C)C)NC(=O)[C@H](C)NC(=O)[C@@H](NC(=O)[C@H](Cc1c[nH]cn1)NC(=O)[C@H](CC(C)C)NC(=O)[C@@H](NC(=O)[C@@H](NC(=O)[C@H](CCCCN)NC(=O)[C@@H](NC(=O)[C@H](C)NC(=O)[C@H](CO)NC(=O)[C@H](CCCCN)NC(=O)[C@H](Cc1ccccc1)NC(=O)[C@@H](NC(=O)[C@H](CCCCN)NC(=O)[C@H](CC(C)C)NC(=O)[C@H](Cc1ccccc1)NC(=O)[C@H](CO)NC(=O)[C@H](CCCCN)NC(=O)[C@H](Cc1c[nH]c2ccccc12)NC(=O)[C@H](CCCCN)NC(C)=O)[C@@H](C)O)C(C)C)[C@@H](C)O)C(C)C)[C@@H](C)O)C(=O)N[C@@H](CO)C(=O)N[C@@H](CO)C(N)=O [Peptide V681, reference compound] | 6.3 µg/mL (≈ 2.13 µM) | 3.1 µg/mL (≈ 1.05 µM) | 3.1 µg/mL (≈ 1.05 µM) | 6.3 µg/mL (≈ 2.13 µM) | 1.0 | 15.6 µg/mL (≈ 5.27 µM) | 12.5 µg/mL (≈ 4.22 µM) | 27.8 µg/mL (≈ 9.39 µM) | 15.6 µg/mL (≈ 5.27 µM) | 62.5 µg/mL (≈ 21.1 µM) | 31.3 µg/mL (≈ 10.6 µM) | 15.6 µg/mL (≈ 5.27 µM) | 62.5 µg/mL (≈ 21.1 µM) | hemolysis of human red blood cells (human red blood cells): 100%; transition temperature Tm [3]: 79.3 °C |
